Experimental findings from patent EP0373216A1, “CEPHALOSPORIN COMPOUNDS OR THEIR SALTS, PROCESS FOR THEIR PREPARATION, AND PARMACEUTICAL COMPOSITIONS” (TEIJIN LIMITED, priority 1987, dated 1988) are described below.

The subject of one series is S. aureus Terajima. Nature of the series: In vitro antibacterial activity, agar disc dilution method. To be noted: Staphylococcus aureus; S. aureus Terajima; Mueller Hinton agar, 10^6/ml, 37°C for 16 hours; read-out: minimum growth inhibitory concentration (MIC). In kind it is cell-based. How it is done: (§1) An in vitro antibacterial activity was measured by an agar disc dilution method.
(§2) Varied test bacteria were cultivated overnight in triptophane-soybroth. A Mueller Hinton agar containing the compound of this invention in varied concentrations was streaked with one platinum loopful of each of the bacteria (number of living cells 10^6/ml).

The next series concerns B. subtilis ATCC 6633. The description is as above. Format: cell-based. The conditions noted are these: Bacillus subtilis, ATCC6633; B. subtilis ATCC 6633; Mueller Hinton agar, 10^6/ml, 37°C for 16 hours; read-out: minimum growth inhibitory concentration (MIC). How it is done:
as §1, §2

Another series deals with S. typhic 901. The description is as above. In kind it is cell-based. To be noted: Mueller Hinton agar, 10^6/ml, 37°C for 16 hours, read-out: minimum growth inhibitory concentration (MIC). How it is done:
as §1, §2

The next series deals with S. pyogenes Cook. The description is as above. Format: cell-based. To be noted: Streptococcus pyogenes; S. pyogenes Cook; Mueller Hinton agar, 10^6/ml, 37°C for 16 hours; read-out: minimum growth inhibitory concentration (MIC). How it is done: as §1, §2
A further series deals with E. coli K12C600. The series is described as above. Format: cell-based. The conditions noted are these: Escherichia coli; E. coli K12C600; Mueller Hinton agar, 10^6/ml, 37°C for 16 hours; read-out: minimum growth inhibitory concentration (MIC). How it is done:
as §1, §2

The next series concerns P. morganii IFO 3445. The description is as above. In kind it is cell-based. To be noted: Morganella morganii, IFO3445; P. morganii IFO 3445; Mueller Hinton agar, 10^6/ml, 37°C for 16 hours; read-out: minimum growth inhibitory concentration (MIC). How it is done: as §1, §2
A further series deals with P. aeruginosa NCTC 1049. The series is described as above. In kind it is cell-based. The conditions noted are these: Pseudomonas aeruginosa, NCTC1049; P. aeruginosa NCTC 1049; Mueller Hinton agar, 10^6/ml, 37°C for 16 hours; read-out: minimum growth inhibitory concentration (MIC). The method, then:
as §1, §2

Another series concerns E. cloacae 963. Described as above. Format: cell-based. The conditions noted are these: Enterobacter cloacae; E. cloacae 963; Mueller Hinton agar, 10^6/ml, 37°C for 16 hours; read-out: minimum growth inhibitory concentration (MIC). How it is done: as §1, §2
In another series the test system is P. rettgeric IFO3850. Described as above. The conditions noted are these: P. rettgeric IFO3850; Mueller Hinton agar, 10^6/ml, 37°C for 16 hours; read-out: minimum growth inhibitory concentration (MIC). Format: cell-based. The method, then:
as §1, §2

Another series deals with S. enteritidis G14. Described as above. Format: cell-based. The conditions noted are these: Salmonella enterica; S. enteritidis G14; Mueller Hinton agar, 10^6/ml, 37°C for 16 hours; read-out: minimum growth inhibitory concentration (MIC). How it is done: as §1, §2
Another series concerns S. marcescens I AM 1184. The series is described as above. In kind it is cell-based. The conditions noted are these: Serratia marcescens, IAM1184; S. marcescens I AM 1184; Mueller Hinton agar, 10^6/ml, 37°C for 16 hours; read-out: minimum growth inhibitory concentration (MIC). The method, then:
as §1, §2

The next series deals with K. pneumoniae PC I 602. Described as above. In kind it is cell-based. To be noted: Klebsiella pneumoniae, PCI602; K. pneumoniae PC I 602; Mueller Hinton agar, 10^6/ml, 37°C for 16 hours; read-out: minimum growth inhibitory concentration (MIC). The method, then:
as §1, §2

The next series has as its system M. euteus ATCC 9341. The description is as above. To be noted: M. euteus ATCC 9341; Mueller Hinton agar, 10^6/ml, 37°C for 16 hours; read-out: minimum growth inhibitory concentration (MIC). Format: cell-based. How it is done: as §1, §2
The test system of a further series is P. vulgalis OX-19. Described as above. In kind it is cell-based. To be noted: P. vulgalis OX-19; Mueller Hinton agar, 10^6/ml, 37°C for 16 hours; read-out: minimum growth inhibitory concentration (MIC). How it is done: as §1, §2
Series [1] deals with alkali phosphatase (derived from calf intestines). Nature of the series: Conversion by alkali phosphatase, analyzed by liquid chromatography. In kind it is in vitro ADME. To be noted: 2 mg in 1 ml glycine buffer pH 7.0, 20U alkali phosphatase, 37°C for 1 hour, liquid chromatography RP-18, UV 260 nm. How it is done: 2 mg of the captioned compound was dissolved in 1 ml of a glycine buffer having pH of 7.0, and 20U of commercial alkali phosphatase (derived from calf intestines) was charged. The solution was kept at 37°C for 1 hour, and then analyzed by liquid chromatography [column: RP-18, elution solvent: a water/methanol solvent mixture, detection: UV wavelength 260 nm].

Structures are written as SMILES. In brackets after ≈: the same amount, converted by molar mass.

For `Nc1nc(/C(=N/Oc2ccc(-c3ccccc3)cc2)C(=O)N[C@@H]2C(=O)N3C(C(=O)[O-])=C(C[n+]4ccc5cc(O)c(O)cc5c4)CS[C@H]23)cs1` [Compound IV, (6R,7R)-7-[(Z)-2-(2-amino-1,3-thiazol-4-yl)-2-(p-phenylphenoxy)iminoacetamide]-3-(6,7-dihydroxy-2-isoquinolinium)methyl-3-cephem-4-carboxylate], the MIC in the series on S. aureus Terajima is 1.6 µg/mL (≈ 2.3 µM); in the series with B. subtilis ATCC 6633 it was 1.6 µg/mL (≈ 2.3 µM); with S. typhic 901 it was less than 0.01 µg/mL; in the series with S. pyogenes Cook, 0.4 µg/mL (≈ 0.576 µM); with E. coli K12C600, 0.02 µg/mL (≈ 0.0288 µM); in the series on P. morganii IFO 3445, less than 0.01 µg/mL. The MIC is 0.8 µg/mL (≈ 1.15 µM) in the series on P. aeruginosa NCTC 1049; less than 0.01 µg/mL with E. cloacae 963; less than 0.01 µg/mL in the series on P. rettgeric IFO3850; 0.02 µg/mL (≈ 0.0288 µM) in the series with S. enteritidis G14; less than 0.01 µg/mL with S. marcescens I AM 1184; 0.02 µg/mL (≈ 0.0288 µM) in the series on K. pneumoniae PC I 602. Also, the MIC in the series on M. euteus ATCC 9341 is 0.8 µg/mL (≈ 1.15 µM); in the series with P. vulgalis OX-19 it was less than 0.01 µg/mL.

On to `CC(C)(O/N=C(\C(=O)N[C@@H]1C(=O)N2C(C(=O)[O-])=C(C[n+]3ccc4cc(O)c(O)cc4c3)CS[C@H]12)c1csc(N)n1)C(=O)O` [Compound A, (6R,7R)-7-[(Z)-2-(2-amino-l,3-thiazol-4-yl)-2-(2-carboxypropyl-2-yloxyimino)acetamide]-3-(6,7-dihydroxy-2-isoquinolinium)methyl-3-cephem-4-carboxylate, reference compound], for which the MIC is 6.2 µg/mL (≈ 9.86 µM) in the series on S. aureus Terajima; 0.4 µg/mL (≈ 0.636 µM) with B. subtilis ATCC 6633; less than 0.01 µg/mL with S. typhic 901; 1.6 µg/mL (≈ 2.55 µM) in the series with S. pyogenes Cook; less than 0.01 µg/mL with E. coli K12C600; less than 0.01 µg/mL with P. morganii IFO 3445. The MIC was 0.02 µg/mL (≈ 0.0318 µM) in the series with P. aeruginosa NCTC 1049; less than 0.01 µg/mL with E. cloacae 963; less than 0.01 µg/mL with P. rettgeric IFO3850; less than 0.01 µg/mL in the series on S. enteritidis G14; less than 0.01 µg/mL in the series on S. marcescens I AM 1184; less than 0.01 µg/mL with K. pneumoniae PC I 602. For the same molecule, the results for the MIC in the series with M. euteus ATCC 9341 and with P. vulgalis OX-19 were 0.2 µg/mL (≈ 0.318 µM) and less than 0.01 µg/mL, respectively.

On to `Nc1nc(/C(=N/Oc2ccccc2)C(=O)N[C@@H]2C(=O)N3C(C(=O)[O-])=C(C[n+]4ccc5cc(O)c(OS(=O)(=O)O)cc5c4)CS[C@H]23)cs1` [Example 6, (6R,7R)-7-[(Z)-2-(2-amino-1,3-thiazol-4-yl-2-phenoxyimino)acetamide]-3-(6,7-hydroxy-7-sulfonyloxy-2-isoquinolinium)methyl-3-cephem-4-carboxylate], for which the “Rf value of the main peak compared with the 6,7-dihydroxy-2-isoquinoliniummethyl compound (compound of Example 1)” value in [1] is listed as “confirmed to agree”.

Consider `Nc1nc(/C(=N/Oc2ccc(CC(=O)O)cc2)C(=O)N[C@@H]2C(=O)N3C(C(=O)[O-])=C(C[n+]4ccc5cc(O)c(O)cc5c4)CS[C@H]23)cs1` [Compound V], for which the MIC with S. aureus Terajima is 1.6 µg/mL (≈ 2.36 µM); in the series on B. subtilis ATCC 6633 it was 1.6 µg/mL (≈ 2.36 µM); with S. typhic 901 it was 0.02 µg/mL (≈ 0.0296 µM); in the series with S. pyogenes Cook, 0.8 µg/mL (≈ 1.18 µM); in the series with E. coli K12C600 it was 0.02 µg/mL (≈ 0.0296 µM); in the series with P. morganii IFO 3445 it was less than 0.01 µg/mL. The MIC in the series with P. aeruginosa NCTC 1049 is 0.05 µg/mL (≈ 0.0739 µM); with E. cloacae 963, 0.05 µg/mL (≈ 0.0739 µM); in the series with P. rettgeric IFO3850, less than 0.01 µg/mL; in the series with S. enteritidis G14 it was 0.02 µg/mL (≈ 0.0296 µM); in the series with S. marcescens I AM 1184, 0.8 µg/mL (≈ 1.18 µM); in the series on K. pneumoniae PC I 602, 0.03 µg/mL (≈ 0.0443 µM). In addition, the MIC in the series with M. euteus ATCC 9341 is 1.6 µg/mL (≈ 2.36 µM); in the series on P. vulgalis OX-19, less than 0.01 µg/mL.

For the molecule `Nc1nc(/C(=N/Oc2ccc(Cl)cc2)C(=O)N[C@@H]2C(=O)N3C(C(=O)[O-])=C(C[n+]4ccc5cc(O)c(O)cc5c4)CS[C@H]23)cs1` [Compound III], the MIC in the series on S. aureus Terajima is 0.8 µg/mL (≈ 1.22 µM); with B. subtilis ATCC 6633 it was 0.4 µg/mL (≈ 0.612 µM); with S. typhic 901, less than 0.01 µg/mL; in the series on S. pyogenes Cook it was 0.1 µg/mL (≈ 0.153 µM); with E. coli K12C600, less than 0.01 µg/mL; in the series on P. morganii IFO 3445, 0.01 µg/mL (≈ 0.0153 µM). Moreover, the MIC in the series with P. aeruginosa NCTC 1049 was 0.8 µg/mL (≈ 1.22 µM); in the series with E. cloacae 963, 0.03 µg/mL (≈ 0.0459 µM); in the series with P. rettgeric IFO3850, less than 0.01 µg/mL; with S. enteritidis G14, less than 0.01 µg/mL; with S. marcescens I AM 1184 it was less than 0.01 µg/mL; with K. pneumoniae PC I 602 it was less than 0.01 µg/mL. Further, the MIC in the series on M. euteus ATCC 9341 is 0.2 µg/mL (≈ 0.306 µM); in the series with P. vulgalis OX-19, less than 0.01 µg/mL.

Regarding `CC(=O)Oc1cc2cc[n+](CC3=C(C(=O)[O-])N4C(=O)[C@@H](NC(=O)/C(=N\Oc5ccccc5)c5csc(N)n5)[C@H]4SC3)cc2cc1O` [Compound X], the MIC in the series on S. aureus Terajima is 1.6 µg/mL (≈ 2.42 µM); in the series on B. subtilis ATCC 6633, 0.8 µg/mL (≈ 1.21 µM); with S. typhic 901, less than 0.01 µg/mL; in the series on S. pyogenes Cook, 0.8 µg/mL (≈ 1.21 µM); in the series with E. coli K12C600, less than 0.01 µg/mL; with P. morganii IFO 3445 it was less than 0.01 µg/mL. For the same molecule, the MIC in the series with P. aeruginosa NCTC 1049 was 0.1 µg/mL (≈ 0.151 µM); with E. cloacae 963, less than 0.01 µg/mL; in the series with P. rettgeric IFO3850 it was less than 0.01 µg/mL; in the series on S. enteritidis G14, 0.01 µg/mL (≈ 0.0151 µM); in the series on S. marcescens I AM 1184, less than 0.01 µg/mL; in the series with K. pneumoniae PC I 602 it was less than 0.01 µg/mL. In addition, the MIC was 1.6 µg/mL (≈ 2.42 µM) with M. euteus ATCC 9341 and less than 0.01 µg/mL with P. vulgalis OX-19.
